Key:
[1] = test system: mouse macrophage RAW264.7 cells; test: Cell proliferation of RAW264.7 cells (cell count); type: cell-based; settings: DHMBA 1, 10, 100 or 1000 μM, 1 to 4 days
Procedure: FIG. 2 is an explanatory diagram describing that the marine factor 3,5-dihydroxy-4-methoxybenzyl alcohol (DHMBA) suppresses the proliferation of mouse macrophage RAW264.7 cells. RAW264.7 cells (1×10^5 cells/ml per well in a 24-well plate) were cultured in a DMEM culture medium containing 10% FBS (fetal bovine serum), 1% P/S (penicillin/streptomycin), and 1% fungizone in a control group (1% ethanol; 0 μM DHMBA as final concentration) and in a DHMBA-treated group (0.1, 1, 10, 100, or 1000 μM) for 1 day (panel A), 2 days (B), 3 days (C), or 4 days (D). After the culture, the number of cells attached to the dish was counted. Data are presented as the mean±SD (standard deviation) from a total of 8 wells in 2 plates using different cell preparations. *: Significant difference (p<0.001) between the control group (gray bars) and the DHMBA-treated group. Statistical analysis was performed using 1-way ANOVA with Tukey-Kramer post-test.
After the culture, to detach the cells from each well, a Ca^2+/Mg^2+ free PBS solution with 0.05% trypsin/EDTA was added to the culture dish (0.1 ml per well) and incubated at 37° C. for 2 min. […]
The number of viable cells was counted under a microscope (Olympus MTV-3) using a hemocytometer (Sigma-Aldrich) and a cell counter (H-102P, Line Seiki Co., Ltd., Tokyo, Japan). […]

[2] = test system: mouse macrophage RAW264.7 cells; test: Measurement of cytokine production (ELISA); type: cell-based; settings: 5 hours
Procedure: RAW264.7 cells (1×10^5/ml per well in a 24-well plate) were cultured for 3 days in a DMEM culture medium without DHMBA until they reached subconfluence. After that, the cell culture was continued for another 5 hours in the control group (1% ethanol; DHMBA 0 μM as final concentration) and the DHMBA-treated group (0.1, 1, 10, 100, or 1000 μM) with or without LPS (100 ng/ml) in the cell culture medium. After the culture, the culture medium was collected, and the cytokine concentrations of TNF-α (FIG. 7A), IL-6 (FIG. 7B), […] (FIG. 7C), and PGE2 (FIG. 7D) in the culture medium were measured using an ELISA Kit. Data are presented as the mean±SD from a total of 8 wells in two plates using different cell preparations. *: Significant difference (P<0.001) versus the controls without DHMBA and LPS (white bars). #: Significant difference (P<0.001) versus the controls with LPS but without DHMBA. Statistical analysis was performed using 1-way ANOVA with Tukey-Kramer post-test.
RAW264.7 cells (1×10^5/ml per well) were cultured in a DMEM culture medium containing 10% FBS and 1% P/S using a 24-well plate for 3 days until they reached subconfluence. The cells were then cultured for another 5 hours in the control group (1% ethanol; DHMBA 0 μM as final concentration) and in the DHMBA-treated group (0.1, 1, 10, 100, or 1000 μM) with or without LPS (100 ng/ml). After the culture, the culture media were collected to measure cytokines. Then, the cells were detached from each culture dish to measure the cell number by the method described in “Cell count”. The concentrations of TNF-α, IL-6, IL-⊕, and PGE2 in the culture medium were measured using ELISA kits. For the measurement, kits for TNF-α (cat. no. BM), KHC301) and IL-16 (cat. no. BMS6002) were obtained from ThermoFisher Scientific (Waltham, MA, USA), and kits for IL-6 (cat. no. 583371) and PGE2 (cat. no. 514010) were purchased from Cayman Chemical (Ann Arbor, MI, USA). The amount of each cytokine produced was expressed as pictograms (pg) secreted into the culture medium (ml).

[3] = LPS 100 ng/ml, DHMBA 1, 10, 100 or 1000 μM

COc1c(O)cc(CO)cc1O [DHMBA, 3,5-dihydroxy-4-methoxybenzyl alcohol]
proliferation of RAW264.7 cells (number of cells attached to the dish) [1]: inhibited
LPS-increased production of IL-1β [2, 3]: suppressed
LPS-increased production of IL-6 [2, 3]: suppressed
LPS-increased production of PGE2 [2, 3]: suppressed
LPS-increased production of TNF-α [2, 3]: suppressed
production of IL-6 ([2]; absence of LPS, DHMBA 100 or 1000 μM): suppressed
